Source: PMC7961380, “A Systematic Study of the In Vitro Pharmacokinetics and Estimated Human In Vivo Clearance of Indole and Indazole-3-Carboxamide Synthetic Cannabinoid Receptor Agonists Detected on the Illicit Drug Market” (Molecules, 2021)

Legend:
[1] = HLM, ref 14 (THJ-018, THJ-2201), 15 (NNEI, MN-18), 106 (NM-2201), 107 (BIM-2201), 108 (STS-135), 16 (AB-PINACA, 5F-AB-PINACA), 54 (5F-MDMB-PINACA), 69 (AB-FUBINACA), 17 (ADB-FUBINACA), 97 (FDU-PB-22, FUB-PB-22), cited from earlier work; for CLint micr / t1/2: 95 (Cumyl-PICA, 5F-Cumyl-PICA), 109 (5F-APP-PICA, 5F-APP-PINACA; for CLint micr: 73 (5F-AMB-PINACA); for t1/2 / CLint: 57 (AMB-4en-PICA); for t1/2: 73 (AMB-PINACA, 5F-AMB-PINACA)
[2] = Plasma protein binding by equilibrium dialysis; format: in vitro ADME, human; settings: human, pooled human plasma, pH 7.4, equilibrium dialysis 5 h, 37 °C, 10 µg mL^−1; read-out: PPB (%) (converted)
Method: Plasma protein binding was assessed by equilibrium dialysis in a 96-well dialysis block (HTDialysis, Ledyard, CT, USA). Dialysis membranes (12–14 kDa) were soaked in deionised water for at least 60 min. Membranes were soaked overnight at 4 °C in ethanol:water 20:80% v/v and then rinsed with deionised water immediately prior to use. […] Spiked plasma (150 µL) was dialysed against isotonic phosphate buffer (pH 7.4) (150 µL) for 5 h at 37 °C with shaking at 100 rpm. Thermal degradation controls for each test compound were kept at 37 °C and 4 °C. Blank control plasma and buffer were included in the incubation. Following incubation, dialysed plasma samples and thermal degradation controls (50 µL) were added to drug-free buffer (50 µL), and dialysed buffer samples (50 µL) were added to drug-free plasma (50 µL). […] Supernatant (150 µL) was added to 50 µL deionised water and samples were analysed by UPLC-MS/MS as described above. Dialysed buffer from each well was tested for protein contamination using BCA protein assay reagent to determine whether membranes had been compromised.
Bu = Analyte/IS ratio determined in buffer side (2) Fraction unbound, fu=(100−% bound)/100

Compound | CLint micr [1] [µL/min/mg] | t1/2 [1] [min] | CLint [1] [mL/min/kg] | fraction unbound at 5 h, 10 µg mL^−1 [2]
O=C(c1cccc2ccccc12)c1nc2ccccc2n1CCCCCF [BIM-2201] | 142 | 4.9 | 134.1 | –
CC(C)(NC(=O)c1cn(CCCCCF)c2ccccc12)c1ccccc1 [5F-Cumyl-PICA] | 390 | 1.77 | – | –
NC(=O)[C@H](Cc1ccccc1)NC(=O)c1nn(CC2CCCCC2)c2ccccc12 | 133 | 5.2 | – | –
CCCCCn1nc(C(=O)Nc2cccc3ccccc23)c2ccccc21 [MN-18] | 410 | 1.71 | 469 | –
CCCCCn1nc(C(=O)N[C@H](C(=O)OC)C(C)C)c2ccccc21 [AMB-PINACA, methyl (1-pentyl-1H-indazole-3-carbonyl)valinate] | – | 1.1 | – | –
CCCCCn1cc(C(=O)Nc2cccc3ccccc23)c2ccccc21 [NNEI] | 300 | 2.29 | 350 | –
O=C(Oc1cccc2ccccc12)c1cn(Cc2ccc(F)cc2)c2ccccc12 [FDU-PB-22] | 56 | 12.4 | 52.7 | –
O=C(NC12CC3CC(CC(C3)C1)C2)c1cn(CCCCCF)c2ccccc12 [STS-135, N-(adamantan-1-yl)-1-(5-fluoropentyl)-1H-indole-3-carboxamide] | 222 | 3.1 | 209 | –
NC(=O)[C@H](Cc1ccccc1)NC(=O)c1cn(CCCCCF)c2ccccc12 [Compound 5F-APP-PICA] | 46 | 15.1 | – | –
NC(=O)[C@H](Cc1ccccc1)NC(=O)c1nn(CCCCCF)c2ccccc12 [5F-APP-PINACA] | 202 | 3.4 | – | –
O=C(c1cccc2ccccc12)c1nn(CCCCCF)c2ccccc12 [THJ-2201] | 64 | 10.8 | 60.8 | –
CC(C)[C@H](NC(=O)c1nn(CCCCCF)c2ccccc12)C(N)=O [Compound 5F-AB-PINACA] | 19 | 35.9 | 18 | –
COC(=O)C1=C(C)NC(C)=C(C(=O)OCCN(C)Cc2ccccc2)C1c1cccc([N+](=O)[O-])c1 (stereo not drawn) [nicardipine, reference compound] | – | – | – | 0.023
O=C(Oc1cccc2cccnc12)c1cn(Cc2ccc(F)cc2)c2ccccc12 [FUB-PB-22] | 60 | 11.5 | 57.1 | –
CCCCCn1nc(C(=O)c2cccc3ccccc23)c2ccccc21 [THJ-018] | 36 | 19.2 | 34.2 | –
O=C(Oc1cccc2ccccc12)c1cn(CCCCCF)c2ccccc12 [NM-2201] | 88 | 8.0 | 81.6 | –
CCCCCn1cc(C(=O)NC(C)(C)c2ccccc2)c2ccccc21 [Cumyl-PICA, 1-pentyl-N-(2-phenylpropan-2-yl)-1H-indole-3-carboxamide] | 120 | 5.92 | – | –
CCCCCn1nc(C(=O)N[C@H](C(N)=O)C(C)C)c2ccccc21 [AB-PINACA] | 37 | 18.7 | 35 | –
